{"source": "paper PMC8151276", "about": "“An Integrated Approach toward NanoBRET Tracers for Analysis of GPCR Ligand Engagement” (Molecules, 2021)", "type_in_all_cases": "binding", "key": {"GRPR": {"molecular_target": "T1, GRPR (Homo sapiens, UniProt P30550)", "T1 construct": "purchased Promega (in-house HiBiT-GPCR construct library, NanoBRET)", "T1 sequence (P30550 whole entry)": "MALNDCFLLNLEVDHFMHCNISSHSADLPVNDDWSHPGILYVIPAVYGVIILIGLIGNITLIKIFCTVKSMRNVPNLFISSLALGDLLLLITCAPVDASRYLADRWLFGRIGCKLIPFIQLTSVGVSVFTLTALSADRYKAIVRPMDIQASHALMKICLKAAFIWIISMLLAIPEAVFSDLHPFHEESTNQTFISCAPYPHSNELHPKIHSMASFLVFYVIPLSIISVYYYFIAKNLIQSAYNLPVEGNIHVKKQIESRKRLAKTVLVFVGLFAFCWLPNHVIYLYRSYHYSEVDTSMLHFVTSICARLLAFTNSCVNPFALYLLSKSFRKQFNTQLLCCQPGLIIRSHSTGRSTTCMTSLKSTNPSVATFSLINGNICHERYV", "test": "NanoBRET screen HiBiT-GRPR in HEK293", "method": "(§1) Each tracer candidate was screened across the entire library of HiBiT-GPCR constructs using NanoBRET as the detection modality. As depicted in Figure 4A, the specificity of interactions was evaluated through decrease in BRET due to competitive displacement of a bound tracer by excess parental compound. Each tracer was analyzed for binding to each HiBiT-GPCR fusion in the absence and in the presence of competing parental compound. Briefly, HEK293 cells were transfected with HiBiT-GPCR constructs diluted into promoterless DNA to reduce expression and maximize translocation to the cell surface. Each tracer candidate was then screened at concentrations of 1 μM and 0.1 μM across cells expressing these fusions. Cells were treated for 1.5 h with tracer either alone or in the presence of 20 μM competing parental compound (i.e., control). BRET was measured upon addition of purified LgBiT and subsequent complementation with HiBiT genetically fused to a GPCR. The specificity of interactions was assessed through a decrease in BRET signal due to competitive displacement of the bound tracer. To further gauge the robustness of these interactions, the fold response over the control (i.e., BRETtracer/BRETcontrol) was calculated. We chose a 1.5-fold response, which translates to ≥7-fold signal over noise as the minimal threshold required to score an interaction as positive. […]. Below we highlight the screening results obtained for our exemplary fluorescent tracers based on Clozapine, Amitriptyline and AZD1283.\n(§2) HiBiT-GPCR DNA constructs were diluted in 10 mM Tris pH 8 to a final concentration of 0.01 μg/μL, arrayed in 96-well plates and stored at −20 °C. For transfection, HEK293 cells were suspended in Opti-MEM (without phenol red) supplemented with 2% fetal bovine serum (Seradigm) and 100 units/mL penicillin–streptomycin (Gibco) at a final concentration of 220,000 cells/mL and dispensed into white 96-well plates at 90 μL/well. Subsequent transfections and screens were carried using an Agilent Bravo Automated Liquid Handling Platform. First, the 96-well HiBiT DNA arrays were diluted 25-fold in Opti-MEM (without serum or phenol red) to a final concentration of 0.0004 μg/μL and 20 μL of the diluted DNAs were transferred into new 96-well plates. Next, promoterless carrier DNA (1 μg/μL) was diluted 25-fold (0.04 μg/μL) and then dispensed into the diluted arrays at 20 μL/well. Following brief mixing, Viafect transfection reagent (Promega) diluted 16-fold into Opti-MEM was dispensed into the plates at 40 μL/well. After mixing by pipetting, plates were incubated for 10 min on the pipetting station deck. The DNA-transfection reagent complexes were then added to plates containing cells. To facilitate the screen, 10 μL of DNA-transfection reagent complexes were added in duplicates to the top 4 and bottom 4 rows, resulting in two identical 48-well arrays per plate. Plates with transfected cells were incubated for 18–20 h at 37 °C/5% CO2. A screen of each tracer across the entire library using two different concentrations requires duplicate plates of transfected cells. Depending on the number of tracers being screened, transfections can be scaled up using the same ratios. The next day, for each tracer, four 20× screening solutions in tracer dilution buffer (Promega) were prepared: two duplicates at final concentration of 20 μM and two duplicates at a final concentration of 2 μM. A competing unmodified compound was added to one of each duplicate at a final concentration of 400 μM. The four resulting solutions were diluted 4-fold in Opti-MEM without serum or phenol red to generate 5× solutions (5 µM and 0.5 µM tracer +/− 100 μM competing compound). To screen the library, a BioTek MultiFlo FX liquid dispenser was used to dispense 22.5 µL of tracer solution to the top 4 rows and 22.5 µL tracer + competing compound solution to the 4 bottom rows. Plates were briefly mixed on an orbital shaker and incubated for 1.5 h at room temperature. […]"}, "CCR8": {"molecular_target": "T2, CCR8 (Homo sapiens, UniProt P51685)", "T2 construct": "purchased Promega (in-house HiBiT-GPCR construct library, NanoBRET)", "T2 sequence (P51685 whole entry)": "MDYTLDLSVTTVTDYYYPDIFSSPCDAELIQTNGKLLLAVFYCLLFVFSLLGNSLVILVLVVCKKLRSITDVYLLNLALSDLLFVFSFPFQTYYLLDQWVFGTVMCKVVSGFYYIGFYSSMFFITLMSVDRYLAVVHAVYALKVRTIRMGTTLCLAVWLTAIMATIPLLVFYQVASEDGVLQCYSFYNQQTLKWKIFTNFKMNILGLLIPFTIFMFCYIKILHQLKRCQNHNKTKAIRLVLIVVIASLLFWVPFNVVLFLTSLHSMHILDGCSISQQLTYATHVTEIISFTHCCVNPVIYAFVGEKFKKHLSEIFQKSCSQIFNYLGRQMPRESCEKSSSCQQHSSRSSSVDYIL", "test": "NanoBRET screen HiBiT-CCR8 in HEK293", "method": "as §1, §2"}, "FZD2": {"molecular_target": "T3, FZD2 (Homo sapiens, UniProt Q14332)", "T3 construct": "purchased Promega (in-house HiBiT-GPCR construct library, NanoBRET)", "T3 sequence (Q14332 24-565)": "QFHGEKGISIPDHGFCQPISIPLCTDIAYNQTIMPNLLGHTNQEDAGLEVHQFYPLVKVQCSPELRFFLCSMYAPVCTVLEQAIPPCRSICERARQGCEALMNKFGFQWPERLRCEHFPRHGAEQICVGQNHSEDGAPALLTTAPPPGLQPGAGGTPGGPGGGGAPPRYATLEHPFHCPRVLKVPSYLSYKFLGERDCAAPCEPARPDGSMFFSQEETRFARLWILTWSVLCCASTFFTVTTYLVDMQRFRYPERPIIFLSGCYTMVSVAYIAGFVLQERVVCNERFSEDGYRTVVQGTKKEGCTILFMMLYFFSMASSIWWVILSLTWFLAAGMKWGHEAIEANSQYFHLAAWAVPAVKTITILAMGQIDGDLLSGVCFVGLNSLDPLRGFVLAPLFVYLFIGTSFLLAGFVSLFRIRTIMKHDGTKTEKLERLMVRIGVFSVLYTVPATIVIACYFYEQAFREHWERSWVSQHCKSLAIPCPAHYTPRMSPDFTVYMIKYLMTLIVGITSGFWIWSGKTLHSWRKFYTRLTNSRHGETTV", "test": "NanoBRET screen HiBiT-FZD2 in HEK293", "method": "as §1, §2"}, "PTGER1": {"molecular_target": "T4, PTGER1 (Homo sapiens, UniProt P34995)", "T4 construct": "purchased Promega (in-house HiBiT-GPCR construct library, NanoBRET)", "T4 sequence (P34995 1-402)": "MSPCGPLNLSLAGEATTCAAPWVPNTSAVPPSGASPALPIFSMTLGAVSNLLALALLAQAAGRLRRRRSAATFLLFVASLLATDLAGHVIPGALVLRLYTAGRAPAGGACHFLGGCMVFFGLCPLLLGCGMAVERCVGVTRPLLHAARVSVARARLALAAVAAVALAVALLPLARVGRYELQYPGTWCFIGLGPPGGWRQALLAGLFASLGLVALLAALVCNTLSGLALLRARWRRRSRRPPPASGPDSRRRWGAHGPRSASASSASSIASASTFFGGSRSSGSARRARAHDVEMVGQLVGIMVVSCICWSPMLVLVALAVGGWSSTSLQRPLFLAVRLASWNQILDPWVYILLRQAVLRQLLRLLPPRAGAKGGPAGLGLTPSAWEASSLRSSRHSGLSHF", "test": "NanoBRET screen HiBiT-PTGER1 in HEK293", "method": "as §1, §2"}, "NPY1R": {"molecular_target": "T5, NPY1R (Homo sapiens, UniProt P25929)", "T5 construct": "purchased Promega (in-house HiBiT-GPCR construct library, NanoBRET)", "T5 sequence (P25929 1-384)": "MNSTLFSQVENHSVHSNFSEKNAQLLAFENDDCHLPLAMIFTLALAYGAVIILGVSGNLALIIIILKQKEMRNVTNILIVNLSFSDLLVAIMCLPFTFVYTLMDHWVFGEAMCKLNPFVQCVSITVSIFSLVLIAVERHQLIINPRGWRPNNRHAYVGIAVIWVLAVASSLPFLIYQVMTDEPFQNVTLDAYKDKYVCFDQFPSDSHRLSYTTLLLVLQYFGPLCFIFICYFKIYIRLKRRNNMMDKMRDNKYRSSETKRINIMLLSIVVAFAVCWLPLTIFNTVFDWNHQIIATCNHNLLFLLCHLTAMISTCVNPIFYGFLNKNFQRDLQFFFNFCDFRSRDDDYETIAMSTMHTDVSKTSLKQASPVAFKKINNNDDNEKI", "test": "NanoBRET screen HiBiT-NPY1R in HEK293", "method": "as §1, §2"}, "HRH3": {"molecular_target": "T6, HRH3 (Homo sapiens, UniProt Q9Y5N1)", "T6 construct": "purchased Promega (in-house HiBiT-GPCR construct library, NanoBRET)", "T6 sequence (Q9Y5N1 whole entry)": "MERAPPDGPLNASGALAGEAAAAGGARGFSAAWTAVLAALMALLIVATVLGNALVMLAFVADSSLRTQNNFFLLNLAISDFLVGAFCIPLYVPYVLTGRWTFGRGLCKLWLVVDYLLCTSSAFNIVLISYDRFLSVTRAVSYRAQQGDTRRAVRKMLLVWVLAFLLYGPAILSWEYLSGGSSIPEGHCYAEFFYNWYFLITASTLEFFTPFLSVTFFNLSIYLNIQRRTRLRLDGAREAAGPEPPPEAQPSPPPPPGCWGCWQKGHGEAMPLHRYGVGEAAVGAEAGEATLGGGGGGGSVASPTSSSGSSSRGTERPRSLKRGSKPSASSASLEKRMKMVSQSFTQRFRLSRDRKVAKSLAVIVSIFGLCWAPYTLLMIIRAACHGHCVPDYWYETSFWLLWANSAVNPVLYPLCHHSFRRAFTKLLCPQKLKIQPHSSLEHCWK", "test": "NanoBRET screen HiBiT-HRH3 in HEK293", "method": "as §1, §2"}, "[1]": {"details": "tracer at 0.1μM, listed as amitriptyline-b-2-NB590"}, "[2]": {"details": "tracer at 1μM, listed as amitriptyline-b-2-NB590"}}, "data": [{"compound": "CN1CCN(C2=Nc3cc(Cl)ccc3Nc3ccc(CNC(=O)CCOCCOCCOCCOCCNC(=O)CCc4ccc5n4[B-](F)(F)[N+]4=C(c6ccc[nH]6)C=CC4=C5)cc32)CC1", "note": "[Clozapine-b-2-NB590]", "values": [{"measurement": "NanoBRET Fold Response", "setting": "GRPR; GRPR, 0.1μM tracer", "result": 1.01}, {"measurement": "NanoBRET Fold Response", "setting": "GRPR; GRPR, 1μM tracer", "result": 1.00}, {"measurement": "NanoBRET Fold Response", "setting": "CCR8; CCR8, 0.1μM tracer", "result": 0.88}, {"measurement": "NanoBRET Fold Response", "setting": "CCR8; CCR8, 1μM tracer", "result": 0.89}, {"measurement": "NanoBRET Fold Response", "setting": "FZD2; FZD2, 0.1μM tracer", "result": 1.01}, {"measurement": "NanoBRET Fold Response", "setting": "FZD2; FZD2, 1μM tracer", "result": 1.11}, {"measurement": "NanoBRET Fold Response", "setting": "PTGER1; PTGER1, 0.1μM tracer", "result": 1.01}, {"measurement": "NanoBRET Fold Response", "setting": "PTGER1; PTGER1, 1μM tracer", "result": 0.97}, {"measurement": "NanoBRET Fold Response", "setting": "NPY1R; NPY1R, 0.1μM tracer", "result": 1.00}, {"measurement": "NanoBRET Fold Response", "setting": "NPY1R; NPY1R, 1μM tracer", "result": 1.03}, {"measurement": "NanoBRET Fold Response", "setting": "HRH3; HRH3, 0.1μM tracer", "result": 0.98}, {"measurement": "NanoBRET Fold Response", "setting": "HRH3; HRH3, 1μM tracer", "result": 1.06}]}, {"compound": "CN(C)CCC=C1c2ccccc2CCc2ccc(C(=O)NCCNC(=O)CCOCCOCCOCCOCCNC(=O)CCc3ccc4n3[B-](F)(F)[N+]3=C(c5ccc[nH]5)C=CC3=C4)cc21", "note": "[Amitriptyline-b-2-NB590]", "values": [{"measurement": "NanoBRET Fold Response", "setting": "GRPR; [1]", "result": 1.05}, {"measurement": "NanoBRET Fold Response", "setting": "GRPR; [2]", "result": 1.03}, {"measurement": "NanoBRET Fold Response", "setting": "CCR8; [1]", "result": 1.03}, {"measurement": "NanoBRET Fold Response", "setting": "CCR8; [2]", "result": 1.03}, {"measurement": "NanoBRET Fold Response", "setting": "FZD2; [1]", "result": 1.03}, {"measurement": "NanoBRET Fold Response", "setting": "FZD2; [2]", "result": 0.94}, {"measurement": "NanoBRET Fold Response", "setting": "PTGER1; tracer at 0.1μM", "result": 1.07}, {"measurement": "NanoBRET Fold Response", "setting": "PTGER1; tracer at 1μM", "result": 1.01}, {"measurement": "NanoBRET Fold Response", "setting": "NPY1R; [1]", "result": 0.90}, {"measurement": "NanoBRET Fold Response", "setting": "NPY1R; [2]", "result": 1.11}, {"measurement": "NanoBRET Fold Response", "setting": "HRH3; [1]", "result": 1.62}, {"measurement": "NanoBRET Fold Response", "setting": "HRH3; [2]", "result": 1.31}]}, {"compound": "CCOC(=O)c1cc(C#N)c(N2CCC(C(=O)NS(=O)(=O)Cc3ccccc3/C=C/C(=O)NCCNC(=O)CCc3ccc4n3[B-](F)(F)[N+]3=C(c5ccc[nH]5)C=CC3=C4)CC2)nc1C", "note": "[AZD1283-1-NB590]", "values": [{"measurement": "NanoBRET Fold Response", "setting": "GRPR; GRPR, 0.1μM", "result": 1.01}, {"measurement": "NanoBRET Fold Response", "setting": "GRPR; GRPR, 1μM", "result": 1.01}, {"measurement": "NanoBRET Fold Response", "setting": "CCR8; CCR8, 0.1μM", "result": 1.04}, {"measurement": "NanoBRET Fold Response", "setting": "CCR8; CCR8, 1μM", "result": 1.18}, {"measurement": "NanoBRET Fold Response", "setting": "FZD2; FZD2, 0.1μM", "result": 1.04}, {"measurement": "NanoBRET Fold Response", "setting": "FZD2; FZD2, 1μM", "result": 1.11}, {"measurement": "NanoBRET Fold Response", "setting": "PTGER1; PTGER1, 0.1μM", "result": 1.17}, {"measurement": "NanoBRET Fold Response", "setting": "PTGER1; PTGER1, 1μM", "result": 1.14}, {"measurement": "NanoBRET Fold Response", "setting": "NPY1R; NPY1R, 0.1μM", "result": 1.10}, {"measurement": "NanoBRET Fold Response", "setting": "NPY1R; NPY1R, 1μM", "result": 1.04}, {"measurement": "NanoBRET Fold Response", "setting": "HRH3; HRH3, 0.1μM", "result": 1.16}, {"measurement": "NanoBRET Fold Response", "setting": "HRH3; HRH3, 1μM", "result": 0.87}]}, {"compound": "CC(C)N(CC[C@H](c1ccccc1)c1cc(CCNC(=O)CCOCCOCCOCCOCCNC(=O)CCc2ccc3n2[B-](F)(F)[N+]2=C(c4ccc[nH]4)C=CC2=C3)ccc1O)C(C)C", "note": "[Tolterodine-2-NB590]", "values": [{"measurement": "NanoBRET Fold Response", "setting": "GRPR; GRPR, tracer 0.1μM", "result": 0.89}, {"measurement": "NanoBRET Fold Response", "setting": "GRPR; GRPR, tracer 1μM", "result": 0.91}, {"measurement": "NanoBRET Fold Response", "setting": "CCR8; CCR8, tracer 0.1μM", "result": 0.82}, {"measurement": "NanoBRET Fold Response", "setting": "CCR8; CCR8, tracer 1μM", "result": 1.07}, {"measurement": "NanoBRET Fold Response", "setting": "FZD2; FZD2, tracer 0.1μM", "result": 0.91}, {"measurement": "NanoBRET Fold Response", "setting": "FZD2; FZD2, tracer 1μM", "result": 0.95}, {"measurement": "NanoBRET Fold Response", "setting": "PTGER1; PTGER1, tracer 0.1μM", "result": 1.00}, {"measurement": "NanoBRET Fold Response", "setting": "PTGER1; PTGER1, tracer 1μM", "result": 1.23}, {"measurement": "NanoBRET Fold Response", "setting": "NPY1R; NPY1R, tracer 0.1μM", "result": 1.16}, {"measurement": "NanoBRET Fold Response", "setting": "NPY1R; NPY1R, tracer 1μM", "result": 1.00}, {"measurement": "NanoBRET Fold Response", "setting": "HRH3; HRH3, tracer 0.1μM", "result": 1.49}, {"measurement": "NanoBRET Fold Response", "setting": "HRH3; HRH3, tracer 1μM", "result": 1.07}]}]}
